Results on 28 compounds are retold here after patent publication US10898504B2, “Substituted nucleoside analogues for use as PRMT5 inhibitors” (Janssen Pharmaceutica NV, priority 2016, dated 2021).

The test system of one experiment is A549 cells. As to the kind of experiment: PD assay (Assay 2): inhibition of nuclear symmetric Arginine dimethylation (SYM10 immunohistochemistry) in A549 cells. It is filed as cell-based. The conditions noted are these: individual measurements shown; for IC50: Homo sapiens, A549, PD assay in A549 cells, read-out: pIC50 Assay 2 (converted). The procedure: EXPERIMENTAL PROCEDURE PD ASSAY (ASSAY 2)
A549 cells (ATCC, Cat #CCL-185) were cultured in Dulbecco's Modified Eagle's Medium (DMEM) (Sigma, Cat #D5796), supplemented with 10% Fetal Calf Serum (FCS)(HyClone™, Cat #SV30160.03), 100 mM Sodium Pyruvate (Sigma, Cat #S8636), 200 mM L-Glutamine (Sigma, Cat #G7513) and 50 mg/mL Gentamycing (Gibco, Cat #15750-037).
Reagents used for buffers were purchased: Dulbecco's phosphate buffered saline (DPBS) without Ca/Mg (Sigma, Cat #D8537), phosphate buffered saline (PBS) 10× (Roche, Cat #11 666 789 001), Formalin solution 10% (Sigma, HT50-1-128-4L), MeOH 100% (Sigma, Cat #32213-2.5L), Triton X-100 (Acros, Cat #215680010), Bovine Serum Albumin (BSA) (Sigma, Cat #A2153), Alexa fluor 488 goat anti-rabbit antibody (Life Technologies, Cat #A11034), HCS CellMask Deep Red Stain (Life Technologies, Cat #H32721), Hoechst Stain (Life Technologies, Cat #33258), Anti-dimethyl-Arginine, sym (SYM10) antibody (Millipore, 07-412).
Immunohistochemistry Procedure
Cells were plated at 400 cells/40 μL/well in 384 well black plates μclear bottom (Perkin Elmer) and overnight incubated at 37° C., 5% CO2. The IC50 Studies were performed using nine point dosing series ranging from 10 μM to […] for each compound. 80 nL of the respective dilution of the compounds was added using the Labcyte POD 810 (Labcyte) reaching a final DMSO concentration of 0.2% in cell culture. After an incubation period of 48 h at 37° C. and 5% CO2, cells were fixed in 10% formalin solution for 15 min at r.t. and 20 min in ice-cold MeOH, after which they were washed 3× in DPBS. Subsequently, the cells were blocked for 1 h in blocking buffer (PBS+1% BSA and 0.5% Triton X-100) and incubated overnight at 4° C. with the SYM10 antibody diluted 1/2000 in blocking buffer. The cells were washed 3× with washing buffer (PBS+0.1% Triton X-100) and incubated with the Alexa fluor 488 goat anti-rabbit antibody diluted 1/200 in blocking buffer for 1 h at r.t. Subsequently, they were washed 3× with washing buffer and incubated for 30 min at r.t. with PBS containing a 1/5000 dilution of Hoechst Stain and a 1/5000 dilution of the HCS CellMask Deep Red Stain. After a final wash with PBS, the plates were imaged using the 10×W lens of the Opera® system (Perkin Elmer Life Sciences) using following settings (values in nm):
In the above equations, the following variable names are use: […]
In the above equations, the following controls were used for normalization: […]
Low control: minimum level of symmetrically dimethylated Arginines (cells treated with reference compound at 10 μM).
High control: maximum level of symmetrically dimethylated Arginines (DMSO treated cells).
IC50 and pIC50 (−log IC50) values were calculated using the appropriate software.
pIC50 values (Co. No. means compound number; n.d. means not determined).

In another experiment the target is T1, PRMT5-MEP50 enzyme (Homo sapiens, UniProt O14744).
T1 construct: One virus expresses full length human PRMT5 with Flag-tag at N-terminus
As to the kind of experiment: In vitro assay (Assay 1): PRMT5-MEP50 high throughput mass spectrometer assay, inhibition of SAH formation. Format: biochemical. The note with it: individual measurements shown; for IC50: read-out: pIC50 Assay 1 (converted). The text has this: EXPERIMENTAL PROCEDURES IN VITRO ASSAY (ASSAY 1)
PRMT5-MEP50 enzyme was purchased from Charles River (Argenta). The enzyme complex was produced in insect cells (Sf9) infected simultaneously with two baculoviruses. One virus expresses full length human PRMT5 with Flag-tag at N-terminus, the second virus expresses full length MEP50 with His6-TEV cleavage at N-terminus. The protein was affinity purified using anti-Flag (M2) beads eluted with 3×FLAG peptide, followed by His-Select eluted with 0.5M imidazole. Eluted protein was then dialysed against tris-buffered saline (TBS) (pH 8.0) containing 20% glycerol and 3 mM dithiothreitol (DTT).
Full-length untagged human recombinant histone H2A (residues 1-130, Genbank Accession #NM_021052, MW=14.1 kDa) expressed in E. coli was purchased from Reaction Biology Corporation, Cat #HMT-11-146. Reagents used for making reaction buffer or stopping reaction were purchased including Tris base (Sigma Cat #T-1503), NaCl (Sigma Cat #RGF-3270), MgCl2 (Sigma Cat #M0250), DTT (Invitrogen Cat #15508-013) and Formic Acid (Riedel deHaen, Cat #33015)
High Throughput Mass Spectrometer Assay
PRMT5 catalyzes the sequential methylations of the terminal nitrogen atoms on the guanidine groups of arginine residues within proteins using co-substrate S-adenosyl-L-methionine (AdoMet, SAM), forming mono-methyl (MMA), symmetric-dimethyl arginine (sDMA) and S-adenosyl-L-homocysteine (AdoHcy, SAH). The enzyme activity was determined by following the product SAH formation using high throughput mass spectrometry (Agilent Rapidfire 300 System coupled to a Sciex 4000 series QTrapm triple-quad MS/MS). The reaction buffer was 20 mM Tris-HC, pH 8.5, 50 mM NaCl, 5 mM MgCl2 and 1 mM DTT. The reaction activity was stopped using 1% formic acid (final concentration).
The IC50 Studies were performed using eleven point dosing series made for each compound by serially diluted 1:2 in dimethyl sulfoxide (DMSO), with point 12 being a DMSO control. Compounds were first spotted to plates, and followed by addition of 2 μM SAM and 0.6 μM H2A (histone H2A) solution mixture. The same volume of enzyme solution was added to initiate the enzymatic reactions. The final concentrations of the reaction are at 1 μM SAM, 0.3 μM H2A and 10 nM enzyme. The reaction was incubated at 30° C. for 60 minutes (min) and then quenched by addition of formic acid to a final concentration of 1%. The inhibitions of SAH formation in the presence of compounds were calculated as a percentage of the control relative to the uninhibited reaction as a function of inhibitor concentration. The data were fit as follows: Y=Bottom+(Top−Bottom)/(1+10^((log IC50−X)*h))
where IC50 is the inhibitor concentration (same unit as X) at 50% inhibition and h is the Hill slope. Y is percent of inhibition, X is log of compound concentration. Bottom and Top are the plateaus in same units as Y.

Where “and” joins values, the source holds several entries; their conditions need not be identical. Identical values can stand only once.

T1 sequence (O14744 whole entry): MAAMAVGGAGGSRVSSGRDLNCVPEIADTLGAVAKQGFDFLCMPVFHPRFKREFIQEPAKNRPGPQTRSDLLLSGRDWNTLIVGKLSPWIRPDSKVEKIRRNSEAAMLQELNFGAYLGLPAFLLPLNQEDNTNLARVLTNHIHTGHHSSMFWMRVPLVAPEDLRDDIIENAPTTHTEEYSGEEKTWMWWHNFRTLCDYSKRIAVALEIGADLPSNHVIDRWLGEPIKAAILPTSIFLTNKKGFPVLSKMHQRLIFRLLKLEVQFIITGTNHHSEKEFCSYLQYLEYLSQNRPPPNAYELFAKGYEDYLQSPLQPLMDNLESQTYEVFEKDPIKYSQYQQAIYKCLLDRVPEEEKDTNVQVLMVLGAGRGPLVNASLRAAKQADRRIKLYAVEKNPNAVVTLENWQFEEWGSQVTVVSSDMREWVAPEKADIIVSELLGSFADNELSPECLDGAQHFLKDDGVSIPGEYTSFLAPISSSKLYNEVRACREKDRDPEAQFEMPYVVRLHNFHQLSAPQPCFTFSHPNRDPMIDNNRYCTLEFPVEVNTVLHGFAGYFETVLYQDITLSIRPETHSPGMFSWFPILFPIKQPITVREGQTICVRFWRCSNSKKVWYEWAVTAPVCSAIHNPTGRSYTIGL
T1 sequence (Q9BQA1 whole entry partner): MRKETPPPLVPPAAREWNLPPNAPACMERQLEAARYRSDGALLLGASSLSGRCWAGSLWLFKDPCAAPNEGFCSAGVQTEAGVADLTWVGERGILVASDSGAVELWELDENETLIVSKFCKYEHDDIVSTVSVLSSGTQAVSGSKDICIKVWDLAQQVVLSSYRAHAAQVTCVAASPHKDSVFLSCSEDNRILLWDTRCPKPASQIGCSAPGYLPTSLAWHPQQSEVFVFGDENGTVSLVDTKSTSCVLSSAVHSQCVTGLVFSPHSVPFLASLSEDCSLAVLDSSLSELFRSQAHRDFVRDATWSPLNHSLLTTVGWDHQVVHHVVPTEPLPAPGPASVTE

In the case of `Nc1ncnn2c([C@@H]3O[C@H](C(=O)N4CCCC45CCNCC5)[C@@H](O)[C@H]3O)ccc12` [Compound 161], the IC50 in the experiment with A549 cells was 4.17 µM; at PRMT5-MEP50 enzyme, 0.38 µM.

Turning to `Nc1ncnc2c1ccn2[C@@H]1O[C@H](CN2CC(F)(F)CC23CCNCC3)[C@@H](O)[C@H]1O` [Compound 29], the IC50 in the experiment on A549 cells was about 0.0603 µM; on PRMT5-MEP50 enzyme, 0.0102 µM and 0.00759 µM. The “pIC50 Assay 2” value with A549 cells (PD assay in A549 cells) was about 7.35.

On to `Nc1ncnc2c1ccn2[C@@H]1O[C@H](CN2CC(C(F)(F)F)CC23CCNCC3)[C@@H](O)[C@H]1O` (stereo partly drawn) [Compound 41], for which the IC50 with A549 cells was over 10 µM; at PRMT5-MEP50 enzyme, 5.75 µM.

For `CN1CCC2(CCCN2C[C@H]2O[C@@H](n3cnc4c(N)ncnc43)[C@H](O)[C@@H]2O)C1` (stereo partly drawn) [Compound 13], the results for the IC50 with A549 cells and at PRMT5-MEP50 enzyme were over 10 µM and 0.955 µM, respectively.

With `Nc1ncnc2c1ccn2[C@@H]1O[C@H](CN2CCCC23CCN(CCc2ccc(F)cc2)CC3)[C@@H](O)[C@H]1O` [Compound 170], the IC50 in the experiment on A549 cells was about 0.148 µM; on PRMT5-MEP50 enzyme, 0.0427 µM.

Turning to `CN(C)C[C@@H]1CC(F)(F)CN1C[C@H]1O[C@@H](c2ccc3c(N)ncnn23)[C@H](O)[C@@H]1O` [Compound 151], the values for the IC50 in the experiment with A549 cells and on PRMT5-MEP50 enzyme were about 6.17 µM and 5.5 µM, respectively.

For the compound `Nc1ncnn2c([C@@H]3O[C@H](CN4CCOC5(CNC5)C4)[C@@H](O)[C@H]3O)ccc12` [Compound 109], the IC50 in the experiment on A549 cells was over 10 µM; on PRMT5-MEP50 enzyme, 2.24 µM.

For the compound `CN1CCC2(CCCN2C[C@H]2O[C@@H](n3cnc4cncnc43)[C@H](O)[C@@H]2O)CC1` [Compound 191], the IC50 in the experiment on A549 cells is over 10 µM. For the same compound, the “pIC50 Assay 1” value at PRMT5-MEP50 enzyme is 5.04.

Consider `CN(C)CC[C@@H]1CC(F)(F)CN1C[C@H]1O[C@@H](c2ccc3c(N)ncnn23)[C@H](O)[C@@H]1O` [Compound 152], for which the IC50 with A549 cells is 4.07 µM; at PRMT5-MEP50 enzyme, 2.95 µM.

As to `Nc1ncnc2c1ccn2[C@@H]1O[C@H](CN2CCCC3(CCNC3)C2)[C@@H](O)[C@H]1O` (stereo partly drawn) [Compound 40], the results for the IC50 in the experiment with A549 cells and at PRMT5-MEP50 enzyme were 0.407 µM and 0.00631 µM, respectively.

As to `Nc1ncnc2c1ccn2[C@@H]1O[C@H](CN2CCCC23CCN(CC2OCCc4ccccc42)CC3)[C@@H](O)[C@H]1O` (stereo partly drawn) [Compound 201], the results for the IC50 with A549 cells and on PRMT5-MEP50 enzyme were about 10.2 µM and 0.457 µM, respectively.

As for `Nc1ncnn2c([C@@H]3O[C@H](CN4CC(F)(F)C[C@H]4CCN4CCOCC4)[C@@H](O)[C@H]3O)ccc12` [Compound 154], the IC50 in the experiment with A549 cells and at PRMT5-MEP50 enzyme was over 10 µM each time.

As to `CN(C)CC[C@@H]1CCCN1C[C@H]1O[C@@H](n2ccc3c(N)ncnc32)[C@H](O)[C@@H]1O` [Compound 187], the IC50 in the experiment with A549 cells was 1.7 µM; on PRMT5-MEP50 enzyme it was 0.0631 µM.

Take `CCN1CCC2(CC1)CC(F)(F)CN2C[C@H]1O[C@@H](n2ccc3c(N)ncnc32)[C@H](O)[C@@H]1O` [Compound 182]: the IC50 in the experiment with A549 cells was 0.501 µM; on PRMT5-MEP50 enzyme it was 0.0155 µM.

As to `NC[C@H]1CC(F)(F)CN1C[C@H]1O[C@@H](n2ccc3c(N)ncnc32)[C@H](O)[C@@H]1O` [Compound 73b], the IC50 in the experiment with A549 cells was 2.45 µM; on PRMT5-MEP50 enzyme it was 0.209 µM.

Regarding `CC(C)C(=O)O[C@@H]1[C@H](OC(=O)C(C)C)[C@@H](CN2CCCC23CCNCC3)O[C@H]1n1ccc2c(N)ncnc21` [Compound 94], the figures for the IC50 in the experiment with A549 cells and on PRMT5-MEP50 enzyme were about 0.0501 µM and over 10 µM, respectively.

In the case of `Nc1ncnc2c1ccn2[C@@H]1O[C@H](CN2CCOCC23CCNC3)[C@@H](O)[C@H]1O` (single isomer, unassigned) [Compound 110], the IC50 with A549 cells was over 10 µM; at PRMT5-MEP50 enzyme it was 1.23 µM.

As for `CN1CCC2(CCCN2C[C@H]2O[C@@H](n3ccc4c(NCCc5ccc(F)cc5)ncnc43)[C@H](O)[C@@H]2O)CC1` [Compound 204], the IC50 is 1.38 µM in the experiment with A549 cells and 0.372 µM on PRMT5-MEP50 enzyme.

`NCC1CCC(F)(F)CN1C[C@H]1O[C@@H](n2ccc3c(N)ncnc32)[C@H](O)[C@@H]1O` (stereo partly drawn) [Compound 50]: the IC50 is 1.51 µM in the experiment with A549 cells and 0.0447 µM on PRMT5-MEP50 enzyme.

Turning to `Nc1ncnc2c1ccn2[C@@H]1O[C@H](CN2CCCC3(CCNCC3)C2)[C@@H](O)[C@H]1O` [Compound 114], the IC50 was about 1.07 µM with A549 cells and 0.0339 µM on PRMT5-MEP50 enzyme.

With `CNC(=O)CCN1CCC2(CCCN2C[C@H]2O[C@@H](n3ccc4c(N)ncnc43)[C@H](O)[C@@H]2O)CC1` [Compound 195], the IC50 with A549 cells is over 10 µM; on PRMT5-MEP50 enzyme, 0.537 µM.

Turning to `Nc1ncnn2c([C@@H]3O[C@H](CN4CCCC45CCNCC5)[C@@H](O)[C@H]3O)ccc12` [Compound 133], the IC50 in the experiment with A549 cells is about 1.05 µM; at PRMT5-MEP50 enzyme it was 0.0288 µM.

On to `NCC1CCCN1C[C@H]1O[C@@H](n2ccc3c(N)ncnc32)[C@H](O)[C@@H]1O` (stereo partly drawn) [Compound 60], for which the IC50 in the experiment on A549 cells was 1.15 µM; on PRMT5-MEP50 enzyme, 0.0288 µM.

In the case of `N#CCN1CCC2(CC1)CC(F)(F)CN2C[C@H]1O[C@@H](c2ccc3c(N)ncnn23)[C@H](O)[C@@H]1O` [Compound 144], the IC50 in the experiment with A549 cells is about 0.933 µM; at PRMT5-MEP50 enzyme, 0.447 µM.

Turning to `CN1CC2(C1)CN(C[C@H]1O[C@@H](n3ccc4c(N)ncnc43)[C@H](O)[C@@H]1O)CCO2` [Compound 92], the IC50 with A549 cells is about 1.38 µM; at PRMT5-MEP50 enzyme it was 0.126 µM.

Take `CN(C)CC[C@@H]1CCCN1C[C@H]1O[C@@H](c2ccc3c(N)ncnn23)[C@H](O)[C@@H]1O` [Compound 148]: the figures for the IC50 with A549 cells and at PRMT5-MEP50 enzyme were over 10 µM and 1.26 µM, respectively.

Take `Nc1ncnc2c1ccn2[C@@H]1O[C@H](CN2CCOC3(CCCNC3)C2)[C@@H](O)[C@H]1O` (stereo partly drawn) [Compound 32]: the IC50 in the experiment with A549 cells is 9.12 µM; at PRMT5-MEP50 enzyme, 4.47 µM.

Consider `CN1CC2(CCCCN2C[C@H]2O[C@@H](n3cnc4c(N)ncnc43)[C@H](O)[C@@H]2O)C1` [Compound 11], for which the IC50 was over 10 µM with A549 cells and 12.3 µM at PRMT5-MEP50 enzyme.
